Where only a bound is given, the exact number is not on record here.

Chain of human LPAR1 (Q92633 whole entry): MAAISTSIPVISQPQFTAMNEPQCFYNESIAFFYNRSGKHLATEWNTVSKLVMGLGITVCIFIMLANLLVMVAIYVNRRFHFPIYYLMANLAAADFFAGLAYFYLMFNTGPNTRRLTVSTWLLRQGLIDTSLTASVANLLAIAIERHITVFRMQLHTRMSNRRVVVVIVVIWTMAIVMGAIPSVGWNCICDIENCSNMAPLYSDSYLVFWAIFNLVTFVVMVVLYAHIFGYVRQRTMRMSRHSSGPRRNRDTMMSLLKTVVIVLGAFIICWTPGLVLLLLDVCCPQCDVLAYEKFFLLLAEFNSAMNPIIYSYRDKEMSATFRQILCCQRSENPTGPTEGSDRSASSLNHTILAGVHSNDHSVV

This assay concerns the target human LPAR1 (Homo sapiens, UniProt Q92633). Put plainly: LPAR1 intracellular calcium mobilization assay (antagonist mode, FLIPR). In kind it is cell-based. As to conditions: CHO-K1 EDG2 cells expressing human LPAR1; test compound 0.5 nM to 10 μM pre-incubated 60 minutes at 37° C., then LPA 18:2 at EC80 concentration (100 nM). Here is the method: In vitro LPAR1 activity was measured in an intracellular calcium mobilization assay. CHO-K1 EDG2 cells (DiscoverX cat #93-0644C2) expressing human LPAR1 (NM_001401.3) were seeded in a total volume of 25 μL of Dulbecco's Modification of Eagle's Medium (DMEM) with 10% Fetal Bovine Serum, 1× PenStrepGlutamine, 300 μg/ml Hygromycin, and 800 μg/ml G418 into 384-well tissue culture plate (Grenier #781091) at 15,000 cells/well and incubated at 37° C. overnight. Prior to testing, 25 μL Calcium Loading Dye Component A (FLIPR Calcium 6 Assay Kit Molecular Device # R8190) and 2.5 mM Probenecid (Invitrogen # P36400, prepared fresh) in Hank's Balanced Salt Solution (Corning #21-023-CV), 20 mM HEPES (Corning #25-060-CI), 0.1% Bovine Serum Albumin (Sigma-Aldrich # A7906-500G) was add to the cells for 60 minutes at 37° C.
Agonist dose curves of LPA 18:2 (Avanti Polar Lipids cat #857138, 0.5 nM to 10 μM) were recorded to determine the LPA 18:2 EC80 for subsequent antagonist assays. For agonist dose curves, cells were removed from the incubator 2 hours after dye loading and transferred to the FLIPR Tetra instrument (Molecular Devices, San Jose, CA). Calcium mobilization was monitored for 5 min and 10 μL 6×LPA in HBSS/20 mM Hepes/0.1% bovine serum albumin (BSA) was added to the cells 5 seconds into the assay.
To determine the LPAR1 antagonist activity of test compounds, cells were pre-incubated with test compound at a dose range of 0.5 nM to 10 μM, followed by LPA at EC80 concentration (100 nM). After dye loading, cells were removed from the incubator and 0.3 μL of 200× antagonist was added. Cells were incubated for 60 minutes at 37° C. Antagonist activity was measured on a FLIPR Tetra. Calcium mobilization was monitored for 3.5 minutes and 10 μL 6×EC80 LPA in HBSS, 20 mM HEPES, and 0.1% BSA was added to the cells 5 seconds into the assay. Signal amplitude (Maximum minus minimum) values were plotted against log10 of antagonist concentration using Dose Response Tool (Gilead Sciences Inc.) to determine […].
To assess the antagonistic potential of exemplified compounds […] were determined for Compounds 1 to 66 in the LPAR1 calcium mobilization assay. The compound numbers correspond to the compound numbers in Examples 1 to 18. N/A=not available.
Background: Calcium assays in cells follow changes in intracellular calcium, usually with a dye or a luminescent sensor.
Consider `C[C@@H](OC(=O)Nc1c(-c2ccc(C(=O)NC34CC(C(F)(F)F)(C3)C4)cn2)nnn1C)c1cc(F)cnc1F` [Compound 22, (R)-1-(2,5-difluoro-pyridin-3-yl)ethyl (1-methyl-4-(5-((3-(trifluorometh-yl)bicyclo[1.1.1]-pentan-1-yl)carbam-oyl)pyridin-2-yl)-1H-1,2,3-triazol-5-yl)carbamate], for which the EC50 (usually the concentration at which the effect is half-maximal) came to 84.8 nM.
As to `C[C@@H](OC(=O)Nc1c(-c2ccc(C(=O)NC34CC(C(F)F)(C3)C4)cn2)nnn1C)c1cc(F)cnc1F` [Compound 23, (R)-1-(2,5-difluoro-pyridin-3-yl)ethyl (4-(5-((3-(difluoro-methyl)bicyclo-[1.1.1]pentan-1-yl)carbamoyl)-pyridin-2-yl)-1-methyl-1H-1,2,3-triazol-5-yl)-carbamate], the EC50 was 159 nM.
The value for `C[C@@H](OC(=O)Nc1c(-c2ccc(C(=O)Nc3cnc(C(F)(F)F)nc3)cn2)nnn1C)c1cc(F)cnc1F` [Compound 24, (R)-1-(2,5-difluoro-pyridin-3-yl)ethyl (1-methyl-4-(5-((2-(trifluorometh-yl)pyrimidin-5-yl)-carbamoyl)pyridin-2-yl)-1H-1,2,3-triazol-5-yl)-carbamate] was 222 nM; that for `C[C@@H](OC(=O)Nc1c(-c2ccc(C(=O)Nc3ccc(C(F)(F)F)nc3)cn2)nnn1C)c1cc(F)cnc1F` [Compound 25, (R)-1-(2,5-difluoro-pyridin-3-yl)ethyl (1-methyl-4-(5-((6-(trifluoromethyl)-pyridin-3-yl)-carbamoyl)pyridin-2-yl)-1H-1,2,3-triazol-5-yl)-carbamate] was 364 nM.
Regarding `C[C@@H](OC(=O)Nc1c(-c2ccc(C(=O)NC34CC(c5ccccc5)(C3)C4)cn2)nnn1C)c1cc(F)cnc1F` [Compound 26], the EC50 is < 4.6 nM.
In the case of `C[C@@H](OC(=O)Nc1c(-c2ccc(C(=O)Nc3ccnc(F)c3)cn2)nnn1C)c1cc(F)cnc1F` [Compound 27, (R)-1-(2,5-difluoro-pyridin-3-yl)ethyl (4-(5-((2-fluoro-pyridin-4-yl)-carbamoyl)pyridin-2-yl)-1-methyl-1H-1,2,3-triazol-5-yl)-carbamate], the EC50 was found to be 42.8 nM.
With `C[C@@H](OC(=O)Nc1c(-c2ccc(C(=O)Nc3ccc(C4CC4)nc3)cn2)nnn1C)c1cc(F)cnc1F` [Compound 28, (R)-1-(2,5-difluoro-pyridin-3-yl)ethyl (4-(5-((6-cyclo-propylpyridin-3-yl)carbamoyl)-pyridin-2-yl)-1-methyl-1H-1,2,3-triazol-5-yl)-carbamate], the concentration giving a half-maximal response (EC50) turned out to be 427 nM.
For `C[C@@H](OC(=O)Nc1c(-c2ccc(C(=O)NC34CC(S(C)(=O)=O)(C3)C4)cn2)nnn1C)c1cc(F)cnc1F` [Compound 29, (R)-1-(2,5-difluoro-pyridin-3-yl)ethyl (1-methyl-4-(5-((3-(methylsulfon-yl)bicyclo[1.1.1]-pentan-1-yl)carbam-oyl)pyridin-2-yl)-1H-1,2,3-triazol-5-yl)carbamate], the EC50 is 3420 nM.
For `C[C@@H](OC(=O)Nc1c(-c2ccc(C(=O)Nc3cccc(C(F)(F)F)c3)cn2)nnn1C)c1cc(F)cnc1F` [Compound 30, (R)-1-(2,5-difluoro-pyridin-3-yl)ethyl (1-methyl-4-(5-((3-(trifluoromethyl)-phenyl)carbam-oyl)pyridin-2-yl)-1H-1,2,3-triazol-5-yl)carbamate], the EC50 stood at 93 nM.
Turning to `C[C@@H](OC(=O)Nc1c(-c2ccc(C(=O)Nc3ccnc(C(F)F)c3)cn2)nnn1C)c1cc(F)cnc1F` [Compound 31, (R)-1-(2,5-difluoro-pyridin-3-yl)ethyl (4-(5-((2-(difluoro-methyl)pyridin-4-yl)carbamoyl)-pyridin-2-yl)-1-methyl-1H-1,2,3-triazol-5-yl)-carbamate], the EC50 is 14.9 nM.
Next, `COc1cc(NC(=O)c2ccc(-c3nnn(C)c3NC(=O)O[C@H](C)c3cc(F)cnc3F)nc2)ccn1` [Compound 32, (R)-1-(2,5-difluoro-pyridin-3-yl)ethyl (4-(5-((2-methoxy-pyridin-4-yl)-carbamoyl)pyridin-2-yl)-1-methyl-1H-1,2,3-triazol-5-yl)-carbamate]: 55.9 nM.
`C[C@@H](OC(=O)Nc1c(-c2ccc(C(=O)Nc3ccnc(OC(F)F)c3)cn2)nnn1C)c1cc(F)cnc1F` [Compound 33, (R)-1-(2,5-difluoro-pyridin-3-yl)ethyl (4-(5-((2-(difluoro-methoxy)pyridin-4-yl)carbamoyl)-pyridin-2-yl)-1-methyl-1H-1,2,3-triazol-5-yl)-carbamate]: the EC50 is 273 nM.
Regarding `C[C@@H](OC(=O)Nc1c(-c2ccc(C(=O)Nc3ccc(C#N)c(C(F)(F)F)c3)cn2)nnn1C)c1cc(F)cnc1F` [Compound 34, (R)-1-(2,5-difluoro-pyridin-3-yl)ethyl (4-(5-((4-cyano-3-(trifluoromethyl)-phenyl)carbamoyl)-pyridin-2-yl)-1-methyl-1H-1,2,3-triazol-5-yl)-carbamate], the EC50 was 47.5 nM.
Turning to `C[C@@H](OC(=O)Nc1c(-c2ccc(C(=O)Nc3ccnc(Cl)c3F)cn2)nnn1C)c1cc(F)cnc1F` [Compound 35, (R)-1-(2,5-difluoro-pyridin-3-yl)ethyl (4-(5-((2-chloro-3-fluoropyridin-4-yl)-carbamoyl)-pyridin-2-yl)-1-methyl-1H-1,2,3-triazol-5-yl)-carbamate], the EC50 was determined as 140 nM.
The value for `C[C@@H](OC(=O)Nc1c(-c2ccc(C(=O)Nc3ccc(-c4ccccc4)cc3)cn2)nnn1C)c1cc(F)cnc1F` [Compound 36, (R)-1-(2,5-difluoro-pyridin-3-yl)ethyl (4-(5-([1,1′-biphen-yl]-4-ylcarbamoyl)-pyridin-2-yl)-1-methyl-1H-1,2,3-triazol-5-yl)-carbamate] was 15.6 nM.
On to `C[C@@H](OC(=O)Nc1c(-c2ccc(C(=O)N[C@@H]3C[C@H]3c3ccccc3)cn2)nnn1C)c1cc(F)cnc1F` [Compound 37, (R)-1-(2,5-difluoro-pyridin-3-yl)ethyl (1-methyl-4-(5-(((1R,2S)-2-phenyl-cyclopropyl)carbam-oyl)pyridin-2-yl)-1H-1,2,3-triazol-5-yl)carbamate], for which the EC50 amounted to 196 nM.
As to `C[C@@H](OC(=O)Nc1c(-c2ccc(C(=O)Nc3cnnc(Cl)c3)cn2)nnn1C)c1cc(F)cnc1F` [Compound 38, (R)-1-(2,5-difluoro-pyridin-3-yl)ethyl (4-(5-((6-chloro-pyridazin-4-yl)-carbamoyl)pyridin-2-yl)-1-methyl-1H-1,2,3-triazol-5-yl)-carbamate], the EC50 turned out to be 24.4 nM.
For the compound `Cc1nnc(-c2ccc(NC(=O)c3ccc(-c4nnn(C)c4NC(=O)O[C@H](C)c4cc(F)cnc4F)nc3)cc2)o1` [Compound 39, (R)-1-(2,5-difluoro-pyridin-3-yl)ethyl (1-methyl-4-(5-((4-(5-methyl-1,3,4-oxadiazol-2-yl)phenyl)-carbamoyl)-pyridin-2-yl)-1H-1,2,3-triazol-5-yl)carbamate], the EC50 stood at 9.1 nM.
In the case of `C[C@@H](OC(=O)Nc1c(-c2ccc(C(=O)Nc3ccc(-c4cccnc4)cc3)cn2)nnn1C)c1cc(F)cnc1F` [Compound 40, (R)-1-(2,5-difluoro-pyridin-3-yl)ethyl (1-methyl-4-(5-((4-(pyridin-3-yl)phenyl)carbam-oyl)pyridin-2-yl)-1H-1,2,3-triazol-5-yl)carbamate], the EC50 was 7.6 nM.

The record behind these values is patent US12503454B2, “LPA receptor antagonists and uses thereof” (Gilead Sciences, Inc., priority 2021, dated 2025).
